Measured values reported in US20240238242A1, “EGCG buccal tablet and use thereof” (priority 2023, published 2024).
≈ marks a conversion by molar mass, not a printed value. Where two headings read alike, the source gives them in different places.

Assays:
[1] = test system: Helicobacter pylori (Hp) strain B5-3; assay: In vitro bactericidal concentration (MBC) against Helicobacter pylori, broth dilution and plate counting; conditions: for Bactericidal rate % / Concentration CFU/mL / Average number of colonies: shake flask about 24 hours; for Average number of colonies: dilution factor 10^−4
SARS-CoV-2 Omicron BA.2 = test system: SARS-CoV-2 Omicron BA.2; parameters: species or system BALB/c mice; conditions: mouse, in vivo
SARS-CoV-2 BJ-01 virus = assay: In vitro effect of EGCG on SARS-CoV-2 BJ-01 infection (co-incubation, then Vero-E6 cells); assay type: cell-based; conditions: 2.18 mM EGCG co-incubated 1, 2, 4 and 8 minutes at room temperature; Vero-E6, 48 hours
Description: In this experimental example, SARS-CoV-2 BJ-01 virus was provided by the Military Veterinary Research Institute, Academy of Military Medical Sciences, Academy of Military Sciences, and its Accession Number at NCBI was MT291831; Vero-E6 cells were provided by the Military Veterinary Research Institute, Academy of Military Medical Sciences, Academy of Military Sciences; and the culture medium was Dulbecco's Modified Eagle Medium, purchased from Thermo Scientific, catalog number: C11995500BT.
The incubation of drug EGCG with SARS-CoV-2 BJ-01 virus in the culture medium was designed according to the time gradient, in which the incubation time was: 1 minute, 2 minutes, 4 minutes, 8 minutes, the EGCG concentration in the incubation system was 1 mg/mL (2.18 mM), and the virus titer in the incubation system was 10^7 TCID50. After incubation, the incubation system was diluted 10 times and used to infect Vero-E6 cells. After 48 hours, the Ct value of the cell supernatant was detected.

[2] = test system: Madin-darby canine kidney cells (MDCK)

SMILES: O=C(O[C@@H]1Cc2c(O)cc(O)cc2O[C@@H]1c1cc(O)c(O)c(O)c1)c1cc(O)c(O)c(O)c1 [EGCG, Epigallocatechin gallate]
- Bactericidal rate % ([1]; EGCG 100 μM): 98.8%
- Concentration CFU/mL ([1]; EGCG 100 μM): 1.4 × 10^7 CFU/mL
- Average number of colonies ([1]; EGCG 100 μM): 142
- Bactericidal rate % ([1]; EGCG 200 μM): >99.9%
- Concentration CFU/mL ([1]; EGCG 200 μM): 3.5 × 10^6 CFU/mL
- Average number of colonies ([1]; EGCG 200 μM): 35
- Bactericidal rate % ([1]; EGCG 400 μM): >99.9%
- Concentration CFU/mL ([1]; EGCG 400 μM): 2.2 × 10^6 CFU/mL
- Average number of colonies ([1]; EGCG 400 μM): 22
- MBC ([1]; Helicobacter pylori, 24 h, read-out: minimum bactericidal concentration (MBC)): 200 µM (≈ 91.7 µg/mL)
- Hp inactivated ([1]; shake flask culture, lowest concentration of 100 μM): about 98.9%
- nucleic acid loads of SARS-CoV-2 Omicron BA.2 in lungs and turbinates (SARS-CoV-2 Omicron BA.2): significantly reduced
- number of live viruses (virus copy number in cell supernatant) (SARS-CoV-2 BJ-01 virus): significantly reduced
- CPE test / cytotoxicity, negative control group [2]: −
- Cytotoxicity / CPE in cell wells 1-10, negative control group [2]: −
- Cytotoxicity / CPE in cell wells, negative control group (EGCG + culture medium) [2]: −
- Cytotoxicity / CPE in cell wells, negative control group (wells 1-10) [2]: −
- Cytotoxicity / CPE in negative control group [2]: −
- Cytotoxicity / CPE per cell well, negative control group [2]: −
- Cytotoxicity / CPE test, negative control group [2]: −
- cell status in negative control group ([2]; MDCK cells, 0.2 mM group): good growth status
- cytotoxicity in negative control group ([2]; MDCK cells, 1 mM group): cytotoxicity was observed
- cytotoxicity in negative control group ([2]; MDCK cells, 5 mM group): cytotoxicity was observed
- cytotoxicity in negative control group ([2]; MDCK cells, sample of 10 times dilution in the 1 mM group): cytotoxicity was observed
